Experiments:
BMM = test: Confocal quantification of cells positive for LC3 and IL-1α puncta; type: cell-based, murine; details: Atg5+ BMM, LPS+IFN-γ, 90 min EBSS
Experimental: (A,B) IL-1α (ELISA) released from LPS+IFN-γ stimulated Atg5^fl/fl LysM-Cre+ and Atg5^fl/fl LysM-Cre− BMM in the presence of 50 μg/ml rapamycin (Rap), 10 mM 3-MA, or 100 nM Bafilomycin A1 (Baf A1) after 12 h of stimulation. (C) IL-1α (ELISA) in culture supernatants of cells as in A, treated with calpain inhibitor, ALLN (100 μM). (D-F) Images and quantification of cells positive for LC3-only, IL-1α-only or LC3+IL-1α. Cells, wild type (Atg5+) BMM stimulated with LPS+IFN-γ and incubated for 90 min in EBSS in the absence (D, control) or presence (E, Baf A1) of bafilomycin A1. Cutoff for cells to be considered positive: >6 red or green puncta. Red arrowheads, IL-1α+ LC3− cells; green arrowheads, IL-1α− LC3+ cells; 10 μm.
For confocal microscopy, BMM were stained with mouse anti-GFP (Abeam, 10 μg/ml) to enhance LC3-GFP visualization, rabbit anti-caspase 1 (Santa Cruz Biotechnology), rabbit anti-calpain 1 (Cell Signaling Technology), or hamster anti-IL-1α (eBioscience) followed by secondary antibodies. Pearson's colocalization coefficients were derived using SLIDEBOOK 5.0 (Intelligent Imaging Innovations) applying the SLIDEBOOK 5 default algorithm command ‘AND’. All Pearson's coefficients were derived from three independent experiments with five fields or more per experiment, for a total of 15 fields contributing to the cumulative result.

caspase 1 p20 = test: Caspase-1 accumulation in BMM by Western blot; type: cell-based, murine; details: Atg5fl/fl LysM-Cre− BMM, EBSS
Experimental: (A) Confocal microcopy analysis of caspase-1 colocalization relative to LC3 in GFP-LC3 expressing BMM induced for autophagy by starvation (EBSS) in the presence of bafilomycin A1 for 90 minutes. Scale bar, 5 μM; Arrowheads and insets, LC3+ caspase-l+ positive profiles (colocalization). (B) Pearson's colocalization coefficient for caspase-1 vs. LC3 and IL-1α vs. LC3. (C) Caspase-1 accumulation in Atg5^fl/fl LysM-Cre− or Atg5^fl/fl LysM-Cre+ BMM induced for autophagy in EBSS with or without bafilomycin A1 (BafA1) and subjected to Western blot analysis. (D) IL-1α (culture supernatant ELISA) released from Atg5fl/fl LysM-Cre+ and Atg5fl/fl LysM-Cre− BMM incubated overnight with 100 ng/ml LPS and exposed for 1 h to inflammasome agonist silica (250 μg/ml) in EBSS. Data, means±SE, n≧3; **p<0.01 (t test).
Cells were washed with PBS and lysed with RIPA buffer containing protease inhibitor cocktail (Roche). Cells extracts were analyzed by standard immunoblotting techniques with antibodies to ASC (Enzo Life Science, AL177), procaspase-1 and active caspase-1 (P20) (Cell Signaling, 2225), GFP (Abeam), calpain I (Cell Signaling), p62 (Abeam) and actin (Sigma). Proteins were resolved on a 12% SDS-polyacrylamide gels and transferred to nitrocellulose membranes. The membrane was blocked for 1 h in 5% nonfat dried milk in PBS/Tween 20 (0.1%) and probed with primary antibody overnight at 4° C. […]

SMILES: CO/C1=C\C(C)=C\[C@@H](C)[C@@H](O)[C@@H](C)C/C(C)=C/C=C/[C@H](OC)[C@@H]([C@@H](C)[C@@H](O)[C@H](C)[C@@]2(O)C[C@@H](O)[C@H](C)[C@@H](C(C)C)O2)OC1=O [bafilomycin A1]
- number of cells positive for both IL-1α and LC3 (BMM): increased
- levels of caspase 1 p20 (caspase 1 p20): abnormally higher levels

— patent publication US9572820B2, “Methods of treating autophagy-associated disorders and related pharmaceutical compositions, diagnostics, screening techniques and kits” (priority 2011, dated 2017)
